Source: ChEMBL document CHEMBL3351617, “Concise syntheses of 7-anilino-indoline-N-benzenesulfonamides as antimitotic and vascular disrupting agents” (Bioorg Med Chem, 2014)
Active and inactive are the calls of the source. No cut-off for these calls is given here.

Tests used:
KB [1] = test: Antiproliferative activity against human KB cells; assay type: functional, cell-based
HT-29 [2] = test: Antiproliferative activity against human HT-29 cells; assay type: functional, cell-based
[3] = Retention time of the compound by HPLC; assay type: physicochemical
[4] = Antiproliferative activity against human MKN45 cells; assay type: functional, cell-based; settings: MKN-45
Tubulin (Homo sapiens) [5] = target: T1, Tubulin (Homo sapiens) (UniProt P68371+Q9H4B7+P0DPH7+P68366+Q13509+Q71U36+P04350+Q3ZCM7+P07437+P68363+Q9BQE3+Q6PEY2+Q13885+Q9BVA1+Q9BUF5); test: Displacement of [3H]colchicine from long-chain biotin-labeled tubulin (unknown origin) at 1 uM after 2 hrs by competition-binding scintillation proximity assay; assay type: protein-complex assay
KB [6] = test: Cell cycle arrest in human KB cells assessed as accumulation at G2/M phase after 24 hrs using propidium iodide staining by flow cytometry; assay type: functional, cell-based
Tubulin (Homo sapiens) [7] = target: T1, Tubulin (Homo sapiens); test: Inhibition of MAP-rich tubulin (unknown origin) polymerization measured every 30 seconds for 30 mins by spectrophotometry; assay type: protein-complex assay
Tubulin = test: Inhibition of tubulin (unknown origin) polymerization by spectrophotometry; assay type: protein-complex assay, Homo sapiens
HUVEC [8] = test: Disruption of vasculature in HUVECs assessed as inhibition of VEGF-induced capillary tube formation at 100 nM by microscopy; assay type: functional, cell-based; settings: Homo sapiens
KB [9] = test: Cell cycle arrest in human KB cells assessed as reduction of cells at S phase at 25 to 400 nM after 24 hrs using propidium iodide staining by flow cytometry; assay type: functional, cell-based
HUVEC [10] = test: Cytotoxicity against HUVECs assessed as reduction in cell viability at 100 nM; assay type: cell-based; settings: human, 0.1 µM
[11] = Antiproliferative activity against human KB-S15 cells; assay type: functional, cell-based
KB [12] = test: Cell cycle arrest in human KB cells assessed as accumulation of cells at sub-G1 phase at 100 nM after 24 hrs using propidium iodide staining by flow cytometry; assay type: functional, cell-based
Tubulin (Homo sapiens) [13] = target: T1, Tubulin (Homo sapiens); test: Displacement of [3H]colchicine from long-chain biotin-labeled tubulin (unknown origin) at 5 uM after 2 hrs by competition-binding scintillation proximity assay; assay type: protein-complex assay
[14] = Antiproliferative activity against human KB-VIN10 cells; assay type: functional, cell-based
Tubulin (Homo sapiens) [15] = target: T1, Tubulin (Homo sapiens); test: Inhibition of MAP-rich tubulin (unknown origin) polymerization at 10 uM measured every 30 seconds for 30 mins by spectrophotometry; assay type: protein-complex assay
[16] = Antiproliferative activity against human KB-7d cells; assay type: functional, cell-based; settings: KB7D
HUVEC [17] = test: Disruption of vasculature in HUVECs assessed as inhibition of VEGF-induced capillary tube formation by microscopy; assay type: functional, cell-based; settings: Homo sapiens
KB [18] = test: Cell cycle arrest in human KB cells assessed as reduction of cells at G1 phase at 25 to 400 nM after 24 hrs using propidium iodide staining by flow cytometry; assay type: functional, cell-based
Tubulin (Homo sapiens) [19] = target: T1, Tubulin (Homo sapiens); test: Competitive inhibition of [3H]colchicine binding to long-chain biotin-labeled tubulin (unknown origin) after 2 hrs by double-reciprocal plot analysis; assay type: protein-complex assay
KB [20] = test: Ratio of ABT751 IC50 to compound IC50 for human KB cells; assay type: functional
MKN-45 = test: Ratio of ABT751 IC50 to compound IC50 for human MKN45 cells; assay type: functional
HT-29 [21] = test: Ratio of ABT751 IC50 to compound IC50 for human HT-29 cells; assay type: functional

| IC50 (KB [1]) | IC50 (HT-29 [2]) | Retention_time [3] | SMILES | IC50 [4] | IC50 [16] | further results |
| --- | --- | --- | --- | --- | --- | --- |
| 1200 nM | 803 nM | 43.47 min | COc1ccc(Nc2cccc3c2N(S(=O)(=O)c2ccc(OC)cc2)CC3)cc1 | 487 nM | – | – |
| 49.7 nM | 149 nM | 40.79 min | COc1ccc(S(=O)(=O)N2CCc3cccc(Nc4ccc(C#N)cc4)c32)cc1 | 92 nM | 71.1 nM | inhibition (Tubulin (Homo sapiens) [5]): 83.6%; Activity (KB [6]): Dose-dependent effect; inhibition (Tubulin (Homo sapiens) [7]): Dose-dependent effect; IC50 (Tubulin): 3200 nM; Activity (HUVEC [8]): Active; Activity (KB [9]): Active; Activity (HUVEC [10]): Non-toxic; IC50 [11]: 77.3 nM; Activity (KB [12]): Active; inhibition (Tubulin (Homo sapiens) [13]): 86.4%; IC50 [14]: 71.9 nM; inhibition (Tubulin (Homo sapiens) [15]): Active; Activity (HUVEC [17]): Dose-dependent effect; Activity (KB [18]): Active; inhibition (Tubulin (Homo sapiens) [19]): Active |
| 557 nM | 588 nM | 44.71 min | COc1ccc(S(=O)(=O)N2CCc3cccc(Nc4ccc(F)cc4)c32)cc1 | 563 nM | – | – |
| – | – | – | CC[C@]1(O)C[C@H]2CN(CCc3c([nH]c4ccccc34)[C@@](C(=O)OC)(c3cc4c(cc3OC)N(C=O)[C@H]3[C@@](O)(C(=O)OC)[C@H](OC(C)=O)[C@]5(CC)C=CCN6CC[C@]43[C@@H]65)C2)C1 [VINCRISTINE] | – | 1.2 nM | – |
| 846 nM | 2380 nM | 33.94 min | COc1ccc(S(=O)(=O)N2CCc3cccc(Nc4ccc(C(=O)O)cc4)c32)cc1 | 1390 nM | – | – |
| 239 nM | 511 nM | 32 min | COc1ccc(S(=O)(=O)N2CCc3cccc(Nc4ccc(O)cc4)c32)cc1 | 493 nM | – | – |
| – | – | – | COc1cc([C@@H]2c3cc4c(cc3[C@@H](O[C@@H]3O[C@@H]5CO[C@@H](C)O[C@H]5[C@H](O)[C@H]3O)[C@H]3COC(=O)[C@H]23)OCO4)cc(OC)c1O [ETOPOSIDE] | – | 54000 nM | IC50 [11]: 3500 nM; IC50 [14]: 23000 nM |
| 1100 nM | 658 nM | 48.11 min | COc1ccc(S(=O)(=O)N2CCc3cccc(Nc4ccc(Cl)cc4)c32)cc1 | 463 nM | – | – |
| 342 nM | 343 nM | 44.81 min | COc1ccc(S(=O)(=O)N2CCc3cccc(Nc4ccccc4)c32)cc1 | 187 nM | – | – |
| 93.5 nM | 678 nM | 42.74 min | COC(=O)c1ccc(Nc2cccc3c2N(S(=O)(=O)c2ccc(OC)cc2)CC3)cc1 | 487 nM | – | inhibition (Tubulin (Homo sapiens) [5]): 41.4%; Ratio IC50 (KB [20]): 3; IC50 (Tubulin): 4700 nM; inhibition (Tubulin (Homo sapiens) [13]): 66.9% |
| – | – | – | CC(=O)O[C@H]1C(=O)[C@@]2(C)[C@H]([C@H](OC(=O)c3ccccc3)[C@]3(O)C[C@H](OC(=O)[C@H](O)[C@@H](NC(=O)c4ccccc4)c4ccccc4)C(C)=C1C3(C)C)[C@]1(OC(C)=O)CO[C@@H]1C[C@@H]2O [PACLITAXEL] | – | 7.9 nM | – |
| 101 nM | 191 nM | 42.28 min | COc1ccc(S(=O)(=O)N2CCc3cccc(Nc4ccc([N+](=O)[O-])cc4)c32)cc1 | 107 nM | 115 nM | inhibition (Tubulin (Homo sapiens) [5]): 44%; IC50 (Tubulin): 3700 nM; Ratio IC50 (MKN-45): 1.5; IC50 [11]: 95.4 nM; inhibition (Tubulin (Homo sapiens) [13]): 69.3%; IC50 [14]: 109 nM; Ratio IC50 (HT-29 [21]): 1.5 |
| 412 nM | 968 nM | 45.49 min | COc1ccc(S(=O)(=O)N2CCc3cccc(Nc4ccc(F)c(F)c4)c32)cc1 | 726 nM | – | – |
